How the values were obtained:
Format in all cases: cell-based
rat Nav1.2 (rNav1.2) [1] = molecular target: T1, rat Nav1.2 (rNav1.2) (Rattus norvegicus, UniProt P04775); experiment: rNav1.2 slow inactivation block, manual patchclamp; conditions: HEK 293F cells stably expressing rNav1.2
T1 construct: expressed in transfected cells
Description: (§1) The generation of HEK 293F cell lines stably expressing human Nav1.7 (h Nav1.7), human Nav1.5 (hNav1.5) and rat Nav1.2 (r Nav1.2) was achieved by subcloning SCN9A, SCN5A, and SCN2A genes into inducible expression vectors followed by transfection into target cells using standard techniques. In the case of h Nav1.7, an expression vector encoding the human Navβ1 auxiliary subunit gene, SCN1B, was co-transfected with the expression vector bearing the SCN9A gene. Clones were selected using appropriate selection agents (0.3 mg/mL Zeocin and 0.8 mg/mL Geneticin) and maintained in Dulbecco's Modified Eagle medium, 10% fetal bovine serum, 1% non-essential amino acids to ˜80% confluence at 37° C. in a humidified incubator with 95% atmosphere and 5% CO2.
(§2) On the day of each experiment, cells that were grown to 80% confluence in a T75 flask were harvested for use on PatchXpress (Molecular Devices, CA, USA). Following a recovery period at 37° C. in a humidified incubator with 95% atmosphere and 5% CO2 in Dulbecco's Modified Eagle Medium, the media was replaced with an external recording solution containing (in mM): 90 TEACl, 50 NaCl, 1.8 CaCl2, 1 MgCl2, 10 HEPES, 10 glucose, adjusted to pH 7.4 with TEAOH and 300 mOsm with sucrose. The internal recording solution contained (in mM): 129 CsF, 2 MgCl2, 11 EGTA, 10 HEPES, 6 NaCl, 3 Na2ATP adjusted to pH 7.2 with CsOH and 280 mOsm with sucrose. The automated liquid handling facility of PatchXpress dispensed cells and added compound. Modulation of Nav1.7 channels by compounds was assessed by promoting the channels into the inactivated state using a conditioning voltage pulse of variable amplitude, followed by a brief hyperpolarizing pulse with a subsequent depolarized voltage step to measure the current amplitude in the presence and absence of compound.
(§3) In some cases, the potency of compounds was measured using either the Patchliner automated patch clamp platform (Nanion) or manual patch clamp techniques. Both approaches allowed the compounds to be characterized based upon the ability of a compound to modulate use- and/or state-dependence across human Nav1.7 (hNav1.7), human Nav1.5 (hNav1.5) and rat Nav1.2 (rNav1.2). The potency data is tabulated in Table 2 and is represented by six data fields. Three of the six fields represent potency data measured with the Patchliner automated platform under varying use- and state-dependent electrophysiology protocols similar to the PatchXpress protocols detailed above. For example, the second data column describes the potency of compounds in their ability to block 50% of Nav1.7 channels when the channel is repetitively activated by depolarizing voltage potentials to induce slow inactivation in approximately 50% of channels (Table 2: h Nav1.7: IC50 Slow Inactivation Block, Automated Patchclamp). The next three data fields describe the data generated from manual patchclamp electrophysiology measurements using similar methods to those employed for automated patchclamp studies.

human Nav1.7 (hNav1.7) [2] = molecular target: T2, human Nav1.7 (hNav1.7) (Homo sapiens, UniProt Q15858); experiment: hNav1.7 slow inactivation block, manual patchclamp; conditions: HEK 293F cells stably expressing hNav1.7, slow inactivation induced in approximately 50% of channels
T2 construct: expressed in transfected cells
Description: as §1, §2, §3

human Nav1.7 (hNav1.7) [3] = molecular target: T2, human Nav1.7 (hNav1.7); experiment: hNav1.7 slow inactivation block, automated patchclamp; conditions: HEK 293F cells stably expressing hNav1.7, slow inactivation induced in approximately 50% of channels
Description: as §1, §2, §3

human Nav1.5 (hNav1.5) = molecular target: T3, human Nav1.5 (hNav1.5) (Homo sapiens, UniProt Q14524); experiment: hNav1.5 slow inactivation block, manual patchclamp; conditions: HEK 293F cells stably expressing hNav1.5
T3 construct: expressed in transfected cells
Description: as §1, with “CO2. […]” for “CO2.”
as §2, §3

rat Nav1.2 (rNav1.2) [4] = molecular target: T1, rat Nav1.2 (rNav1.2); experiment: rNav1.2 slow inactivation block, automated patchclamp; conditions: HEK 293F cells stably expressing rNav1.2
Description: as §1, §2, §3

T3 sequence (Q14524 whole entry): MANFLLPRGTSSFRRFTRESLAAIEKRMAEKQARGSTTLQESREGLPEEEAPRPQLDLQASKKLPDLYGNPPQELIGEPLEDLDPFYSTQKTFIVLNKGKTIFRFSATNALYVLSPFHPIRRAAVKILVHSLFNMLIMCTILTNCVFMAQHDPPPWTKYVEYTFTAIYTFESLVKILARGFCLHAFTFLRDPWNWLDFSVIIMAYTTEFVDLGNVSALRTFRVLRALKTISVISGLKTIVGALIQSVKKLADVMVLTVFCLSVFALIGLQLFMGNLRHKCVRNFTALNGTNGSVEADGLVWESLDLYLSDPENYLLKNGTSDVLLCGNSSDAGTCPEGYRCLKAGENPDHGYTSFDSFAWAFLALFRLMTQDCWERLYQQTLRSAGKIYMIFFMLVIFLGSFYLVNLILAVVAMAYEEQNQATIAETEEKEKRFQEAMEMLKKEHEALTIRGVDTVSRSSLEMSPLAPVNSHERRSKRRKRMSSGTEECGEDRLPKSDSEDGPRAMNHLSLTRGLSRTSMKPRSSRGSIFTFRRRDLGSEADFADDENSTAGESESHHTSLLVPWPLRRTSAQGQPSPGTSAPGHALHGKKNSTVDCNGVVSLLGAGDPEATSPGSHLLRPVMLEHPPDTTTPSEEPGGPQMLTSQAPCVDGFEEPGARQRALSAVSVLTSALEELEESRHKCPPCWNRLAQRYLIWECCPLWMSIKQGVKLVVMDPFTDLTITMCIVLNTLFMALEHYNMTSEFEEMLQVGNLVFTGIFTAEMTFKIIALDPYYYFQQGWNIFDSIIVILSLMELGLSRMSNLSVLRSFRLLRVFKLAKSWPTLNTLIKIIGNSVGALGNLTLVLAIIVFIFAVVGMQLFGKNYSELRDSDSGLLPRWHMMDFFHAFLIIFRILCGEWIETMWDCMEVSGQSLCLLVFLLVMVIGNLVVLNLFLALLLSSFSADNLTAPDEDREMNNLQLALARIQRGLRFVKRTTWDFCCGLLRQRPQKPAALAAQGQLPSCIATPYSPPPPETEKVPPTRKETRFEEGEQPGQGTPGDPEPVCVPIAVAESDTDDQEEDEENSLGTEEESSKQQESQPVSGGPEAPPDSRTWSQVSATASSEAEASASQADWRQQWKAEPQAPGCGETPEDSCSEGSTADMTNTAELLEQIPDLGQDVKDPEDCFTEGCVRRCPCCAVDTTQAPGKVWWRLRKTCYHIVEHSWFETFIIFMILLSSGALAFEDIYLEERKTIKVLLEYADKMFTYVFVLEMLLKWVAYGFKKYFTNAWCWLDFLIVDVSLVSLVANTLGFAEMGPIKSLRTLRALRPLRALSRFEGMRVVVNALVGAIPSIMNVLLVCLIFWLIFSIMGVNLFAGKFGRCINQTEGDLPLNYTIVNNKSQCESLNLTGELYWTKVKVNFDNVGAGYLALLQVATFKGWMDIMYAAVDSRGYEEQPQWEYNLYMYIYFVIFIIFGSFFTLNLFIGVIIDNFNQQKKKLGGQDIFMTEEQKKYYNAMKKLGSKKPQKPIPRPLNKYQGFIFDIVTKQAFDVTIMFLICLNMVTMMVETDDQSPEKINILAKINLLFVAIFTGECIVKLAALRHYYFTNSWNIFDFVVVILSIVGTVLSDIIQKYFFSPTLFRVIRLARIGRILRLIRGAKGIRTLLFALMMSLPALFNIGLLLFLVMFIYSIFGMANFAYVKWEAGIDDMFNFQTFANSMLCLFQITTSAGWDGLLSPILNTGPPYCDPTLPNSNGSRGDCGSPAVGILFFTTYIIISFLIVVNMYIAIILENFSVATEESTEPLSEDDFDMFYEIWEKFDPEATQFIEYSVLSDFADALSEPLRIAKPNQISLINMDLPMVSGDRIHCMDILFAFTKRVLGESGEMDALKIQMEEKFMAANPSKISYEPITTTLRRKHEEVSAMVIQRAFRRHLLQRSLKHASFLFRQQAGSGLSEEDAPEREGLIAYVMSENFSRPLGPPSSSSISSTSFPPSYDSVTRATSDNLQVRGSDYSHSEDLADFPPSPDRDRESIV
T2 sequence (Q15858 whole entry): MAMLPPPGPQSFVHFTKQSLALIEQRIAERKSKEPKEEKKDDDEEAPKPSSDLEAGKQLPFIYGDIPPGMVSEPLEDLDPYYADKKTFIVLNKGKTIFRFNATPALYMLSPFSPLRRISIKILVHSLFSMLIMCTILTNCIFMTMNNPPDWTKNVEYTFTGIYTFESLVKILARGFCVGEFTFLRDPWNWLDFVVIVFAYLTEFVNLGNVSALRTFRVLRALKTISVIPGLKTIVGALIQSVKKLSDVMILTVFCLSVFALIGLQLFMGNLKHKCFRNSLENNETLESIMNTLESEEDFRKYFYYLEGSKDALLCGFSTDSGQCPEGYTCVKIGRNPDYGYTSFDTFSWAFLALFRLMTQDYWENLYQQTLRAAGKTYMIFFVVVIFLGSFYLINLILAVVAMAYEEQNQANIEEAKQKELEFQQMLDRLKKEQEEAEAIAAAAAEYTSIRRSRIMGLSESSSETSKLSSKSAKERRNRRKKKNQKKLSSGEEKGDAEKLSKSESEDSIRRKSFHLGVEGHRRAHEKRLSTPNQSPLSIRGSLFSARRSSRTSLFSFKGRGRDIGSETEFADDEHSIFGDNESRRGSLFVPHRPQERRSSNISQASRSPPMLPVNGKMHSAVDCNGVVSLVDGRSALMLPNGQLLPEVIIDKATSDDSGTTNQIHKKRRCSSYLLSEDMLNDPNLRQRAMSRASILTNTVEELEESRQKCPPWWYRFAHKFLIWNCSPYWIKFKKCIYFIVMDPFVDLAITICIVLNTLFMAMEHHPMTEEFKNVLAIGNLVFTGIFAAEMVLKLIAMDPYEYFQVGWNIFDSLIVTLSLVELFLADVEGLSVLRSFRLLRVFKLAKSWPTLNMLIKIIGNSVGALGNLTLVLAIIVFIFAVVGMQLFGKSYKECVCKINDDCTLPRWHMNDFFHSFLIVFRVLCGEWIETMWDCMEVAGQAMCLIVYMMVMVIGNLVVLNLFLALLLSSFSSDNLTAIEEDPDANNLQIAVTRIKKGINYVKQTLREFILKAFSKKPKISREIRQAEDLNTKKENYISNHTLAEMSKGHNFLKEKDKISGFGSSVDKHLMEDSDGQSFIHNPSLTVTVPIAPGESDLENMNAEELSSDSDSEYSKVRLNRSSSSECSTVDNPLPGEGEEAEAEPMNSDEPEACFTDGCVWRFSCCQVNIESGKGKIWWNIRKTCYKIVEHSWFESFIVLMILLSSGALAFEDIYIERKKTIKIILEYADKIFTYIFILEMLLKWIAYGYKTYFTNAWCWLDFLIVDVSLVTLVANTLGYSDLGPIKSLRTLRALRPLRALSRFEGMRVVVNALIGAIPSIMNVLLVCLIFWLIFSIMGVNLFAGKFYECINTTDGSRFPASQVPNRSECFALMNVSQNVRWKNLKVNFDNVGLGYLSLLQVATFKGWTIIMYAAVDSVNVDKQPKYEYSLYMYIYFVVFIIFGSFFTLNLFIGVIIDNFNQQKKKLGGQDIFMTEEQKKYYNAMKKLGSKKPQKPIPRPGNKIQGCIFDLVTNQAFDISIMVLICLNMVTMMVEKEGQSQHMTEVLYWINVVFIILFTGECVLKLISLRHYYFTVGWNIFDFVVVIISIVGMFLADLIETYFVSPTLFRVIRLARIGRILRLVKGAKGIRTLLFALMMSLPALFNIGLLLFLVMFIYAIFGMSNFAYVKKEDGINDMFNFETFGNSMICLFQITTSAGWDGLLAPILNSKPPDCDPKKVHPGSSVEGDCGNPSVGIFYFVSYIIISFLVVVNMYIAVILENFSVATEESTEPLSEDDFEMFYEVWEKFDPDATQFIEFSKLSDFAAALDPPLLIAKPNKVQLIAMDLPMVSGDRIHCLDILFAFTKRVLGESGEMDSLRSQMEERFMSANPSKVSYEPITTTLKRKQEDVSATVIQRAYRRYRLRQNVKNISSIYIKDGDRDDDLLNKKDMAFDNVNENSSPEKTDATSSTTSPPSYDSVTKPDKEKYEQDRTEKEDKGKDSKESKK
T2 sequence (Q07699 19-218 partner): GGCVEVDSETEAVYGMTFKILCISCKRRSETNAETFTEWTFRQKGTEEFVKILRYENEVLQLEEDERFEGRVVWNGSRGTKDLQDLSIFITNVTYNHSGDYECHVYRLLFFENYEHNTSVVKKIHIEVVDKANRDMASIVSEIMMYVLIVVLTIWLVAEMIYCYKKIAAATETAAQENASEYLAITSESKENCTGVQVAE

| IC50 (rat Nav1.2 (rNav1.2) [1]) | IC50 (human Nav1.7 (hNav1.7) [2]) | IC50 (human Nav1.7 (hNav1.7) [3]) | IC50 (rat Nav1.2 (rNav1.2) [4]) | SMILES | IC50 (human Nav1.5 (hNav1.5)) |
| --- | --- | --- | --- | --- | --- |
| > 10000 nM | 256 nM | ~11900 nM | – | O=S(=O)(Nc1ncns1)c1cc(F)c(Oc2cc(Cl)cc(C(F)(F)F)c2)cc1F [Compound 36, 4-[3-chloro-5-(trifluoromethyl)phenoxy]-2,5-difluoro-N-(1,2,4-thiadiazol-5-yl)benzene-1-sulfonamide] | ~4960 nM |
| 19400 nM | 393 nM | 7250 nM | – | O=S(=O)(Nc1ncns1)c1cc(F)c(Oc2cc(C(F)(F)F)cc(C(F)(F)F)c2)cc1F [Compound 5, 4-[3,5-bis(trifluoromethyl)phenoxy]-2,5-difluoro-N-(1,2,4-thiadiazol-5-yl)benzene-1-sulfonamide] | 16600 nM |
| ~2740 nM | 186 nM | ~6250 nM | – | COc1cc(Oc2cc(F)c(S(=O)(=O)Nc3ncns3)cc2F)cc(C(F)(F)F)c1 [Compound 34, 2,5-difluoro-4-[3-methoxy-5-(trifluoromethyl)phenoxy]-N-(1,2,4-thiadiazol-5-yl)benzene-1-sulfonamide] | 1600 nM |
| ~32000 nM | 2170 nM | 18000 nM | ~32000 nM | N#Cc1cc(Oc2cc(F)c(S(=O)(=O)Nc3ncns3)cc2F)cc(C(F)(F)F)c1 [Compound 27, 4-[3-cyano-5-(trifluoromethyl)phenoxy]-2,5-difluoro-N-(1,2,4-thiadiazol-5-yl)benzene-1-sulfonamide] | – |
| > 10000 nM | 3890 nM | 23600 nM | > 32000 nM | NC(=O)c1cc(Oc2cc(F)c(S(=O)(=O)Nc3ncns3)cc2F)cc(C(F)(F)F)c1 [Compound 24, 3-{2,5-difluoro-4-[(1,2,4-thiadiazol-5-yl)sulfamoyl]phenoxy}-5-(trifluoromethyl)benzamide] | – |
| > 10000 nM | ~413 nM | ~17600 nM | – | CCCOc1cc(Oc2cc(F)c(S(=O)(=O)Nc3ncns3)cc2F)cc(C(F)(F)F)c1 [Compound 37, 2,5-difluoro-4-[3-propoxy-5-(trifluoromethyl)phenoxy]-N-(1,2,4-thiadiazol-5-yl)benzene-1-sulfonamide] | 7210 nM |
| ~4910 nM | 118 nM | ~10000 nM | – | O=S(=O)(Nc1ncns1)c1cc(F)c(Oc2cc(Br)cc(C(F)(F)F)c2)cc1F [Compound 33, 4-[3-bromo-5-(trifluoromethyl)phenoxy]-2,5-difluoro-N-(1,2,4-thiadiazol-5-yl)benzene-1-sulfonamide] | ~4010 nM |
| > 10000 nM | 942 nM | ~21100 nM | > 32000 nM | O=S(=O)(Nc1ncns1)c1cc(F)c(Oc2cc(F)cc(C(F)(F)F)c2)cc1F [Compound 32, 2,5-difluoro-4-(3-fluoro-5-(trifluoromethyl)phenoxy)-N-(1,2,4-thiadiazol-5-yl)benzenesulfonamide] | – |

Further lines, the compound ahead of its results:

| SMILES | IC50 (rat Nav1.2 (rNav1.2) [1]) | IC50 (human Nav1.7 (hNav1.7) [2]) | IC50 (human Nav1.7 (hNav1.7) [3]) | IC50 (rat Nav1.2 (rNav1.2) [4]) | IC50 (human Nav1.5 (hNav1.5)) |
| --- | --- | --- | --- | --- | --- |
| O=S(=O)(Nc1ncns1)c1cc(F)c(Oc2cc(F)cc(Cl)c2)cc1F [Compound 29, 4-(3-chloro-5-fluorophenoxy)-2,5-difluoro-N-(1,2,4-thiadiazol-5-yl)benzene-1-sulfonamide] | > 32000 nM | 678 nM | 14600 nM | > 32000 nM | ~7570 nM |
| O=C(Cc1cccc(-c2cc(C(F)(F)F)cc(C(F)(F)F)c2)c1)Nc1ncns1 [Compound 21, 2-{3-[3,5-bis(trifluoromethyl)phenyl]phenyl}-N-(1,2,4-thiadiazol-5-yl)acetamide] | ~389 nM | ~383 nM | – | – | 550 nM |
| NC1(C(=O)NCc2cc(-c3cc(C(F)(F)F)cc(C(F)(F)F)c3)cc(C(F)(F)F)c2)CCCC1 [Compound 53, 1-amino-N-((3′,5,5′-tris(trifluoromethyl)-[1,1′-biphenyl]-3-yl)methyl)cyclopentane-1-carboxamide] | 120 nM | 225 nM | 1880 nM | 1090 nM | – |
| N#Cc1cc(S(=O)(=O)Nc2ncns2)ccc1Oc1cc(C(F)(F)F)cc(C(F)(F)F)c1 [Compound 14, 4-[3,5-bis(trifluoromethyl)phenoxy]-3-cyano-N-(1,2,4-thiadiazol-5-yl)benzene-1-sulfonamide] | > 10000 nM | 4940 nM | ~49000 nM | > 32000 nM | – |
| O=S(=O)(Nc1ncns1)c1cc(F)c(Oc2cc(F)cc(F)c2)cc1F [Compound 28, 4-(3,5-difluorophenoxy)-2,5-difluoro-N-(1,2,4-thiadiazol-5-yl)benzene-1-sulfonamide] | > 10000 nM | ~3960 nM | ~37900 nM | > 32000 nM | – |
| O=C(NCc1cccc(-c2cc(C(F)(F)F)cc(C(F)(F)F)c2)c1)[C@@H]1CCCN1S(=O)(=O)Nc1ccccc1 [Compound 59, (2S)-N-({3-[3,5-bis(trifluoromethyl)phenyl]phenyl}methyl)-1-(phenylsulfamoyl)pyrrolidine-2-carboxamide] | 166 nM | 153 nM | 8690 nM | 8730 nM | – |
| O=C(NCc1cc(-c2cc(C(F)(F)F)cc(C(F)(F)F)c2)cc(C(F)(F)F)c1)[C@H]1CCCN1 [Compound 55, (R)-N-((3′,5,5′-tris(trifluoromethyl)-[1,1′-biphenyl]-3-yl)methyl)pyrrolidine-2-carboxamide] | 156 nM | 162 nM | 3610 nM | 2580 nM | – |
| CN(c1ncns1)S(=O)(=O)c1cc(F)c(Oc2cc(Br)cc(C(F)(F)F)c2)cc1F [Compound 2, 4-(3-bromo-5-(trifluoromethyl)phenoxy)-2,5-difluoro-N-methyl-N-(1,2,4-thiadiazol-5-yl)benzenesulfonamide] | – | 484 nM | – | – | > 3200 nM |
| CCOC(=O)c1cc(Oc2cc(F)c(S(=O)(=O)Nc3ncns3)cc2F)cc(C(F)(F)F)c1 [Compound 26, ethyl 3-{2,5-difluoro-4-[(1,2,4-thiadiazol-5-yl)sulfamoyl]phenoxy}-5-(trifluoromethyl)benzoate] | > 10000 nM | 2130 nM | ~37200 nM | > 32000 nM | – |
| O=C(NCc1cc(F)c(Oc2cc(Br)cc(C(F)(F)F)c2)cc1F)c1ncns1 [Compound 1, N-(4-(3-bromo-5-(trifluoromethyl)phenoxy)-2,5-difluorobenzyl)-1,2,4-thiadiazole-5-carboxamide] | – | 294 nM | – | – | < 1000 nM |
| CN(C)C(=O)c1cc(Oc2cc(F)c(S(=O)(=O)Nc3ncns3)cc2F)cc(C(F)(F)F)c1 [Compound 38, 3-{2,5-difluoro-4-[(1,2,4-thiadiazol-5-yl)sulfamoyl]phenoxy}-N,N-dimethyl-5-(trifluoromethyl)benzamide] | – | 1600 nM | ~17100 nM | – | > 32000 nM |
| CS(=O)(=O)NCc1cc(F)c(Oc2cc(C(F)(F)F)cc(C(F)(F)F)c2)cc1F [Compound 20, N-({4-[3,5-bis(trifluoromethyl)phenoxy]-2,5-difluorophenyl}methyl)methane-sulfonamide] | ~1320 nM | ~1260 nM | 5780 nM | 4260 nM | – |
| O=C(NCc1cc(F)c(Oc2cc(C(F)(F)F)cc(C(F)(F)F)c2)cc1F)c1nncs1 [Compound 19, N-({4-[3,5-bis(trifluoromethyl)phenoxy]-2,5-difluorophenyl}methyl)-1,3,4-thiadiazole-2-carboxamide] | ~1250 nM | 1380 nM | ~10200 nM | 5660 nM | – |

Source: patent US11236078B2, “Heterocyclic inhibitors of the sodium channel” (priority 2014, dated 2022)
